Literature values as cited in publication PMC8515052, “PepVAE: Variational Autoencoder Framework for Antimicrobial Peptide Generation and Activity Prediction” (Frontiers in Microbiology, 2021).

System: Acinetobacter baumannii
Settings: murine model of infection; ref Stokes et al., 2020
Description: Many pathogenic bacteria are resistant to the majority of, if not all, antibiotics that are currently being isolated using traditional methods. Because of this, generation of new antimicrobials is critical for survival in the post-antibiotic era ([Brown and Wright, 2016]). At the current rate, annual global death due to antibiotic resistance is projected to exceed 10 million by 2050, costing 100 trillion USD ([O’Neill, 2014]); however, investment has not kept up with the task with very few antibiotics currently in clinical development and far fewer likely to be approved for treatment of patien ...

In the case of `Nc1nnc(Sc2ncc([N+](=O)[O-])s2)s1` [halicin], the “activity against Acinetobacter baumannii” value is listed as “displays activity”.
